Reference: patent USRE40086E1, “Method for treating bacterial infection with novel 7-substituted-9-substituted amino 6-demethyl-6-deoxytetracyclines” (Wyeth Holdings Corporation, priority 1991, dated 2008)
Structures can show the parent of a compound that is named as a salt. Where two headings read alike, the source gives them in different places.

Columns and labels:
[1] = tested on: S. aureus UBMS 90-3 (Sensitive); test: MIC, agar dilution; assay type: cell-based
[2] = tested on: S. aureus UBMS 88-4 (Sensitive); test: MIC, agar dilution; assay type: cell-based
[3] = tested on: Bordetella bronchiseptica (Agricultural); test: MIC vs recent clinical and agricultural isolates (Table V, KK); assay type: cell-based; settings: [10] tested
E. coli UBMS 89-1 (tetM) = test: MIC, agar dilution; assay type: cell-based
Pseudomonas aeruginosa = test: MIC vs recent clinical and agricultural isolates (Table V, KK); assay type: cell-based; settings: [10] tested
[4] = tested on: S. haemolyticus AVAH 88-3; test: MIC, agar dilution; assay type: cell-based
Enterococcus faecium = test: MIC vs recent clinical and agricultural isolates (Table V, KK); assay type: cell-based; settings: [10] tested
[5] = tested on: Bacertoides fragilis group; test: as above; assay type: cell-based; settings: [10] tested
Streptococcus agalactiae = test: as above; assay type: cell-based; settings: [10] tested
[6] = tested on: Pasturella multocida (Agricultural & Clinical); test: as above; assay type: cell-based; settings: [17] tested
E. coli UBMS 88-1 (tetB) = test: MIC, agar dilution; assay type: cell-based; settings: for MIC: E. coli UBMS 88-1 (tetB)
[7] = tested on: S. aureus ATCC 29213 (Sensitive); test: MIC, agar dilution; assay type: cell-based
[8] = tested on: Escherichia coli UBMS 90-4 (Tet-M); test: In vivo antibacterial evaluation, acute lethal infection in mice
E. faecalis 12201 = test: MIC, agar dilution; assay type: cell-based
E. coli ATCC 25922 = test: MIC, agar dilution; assay type: cell-based
[9] = tested on: S. aureus UBMS 88-5 (tetM); test: MIC, agar dilution; assay type: cell-based; settings: for MIC: S. aureus UBMS 88-5 (tetM)
[10] = tested on: E. coli UBMS 89-2 (Sensitive); test: MIC, agar dilution; assay type: cell-based
[11] = tested on: S. aureus UBMS 90-1 (tetM); test: MIC, agar dilution; assay type: cell-based; settings: for MIC: S. aureus UBMS 90-1 (tetM)
E. coli UBMS 90-4 (tetM) = test: MIC, agar dilution; assay type: cell-based
[12] = tested on: Staphylococcus Coagulase-negative, methicillin-susceptible; test: MIC vs recent clinical and agricultural isolates (Table V, KK); assay type: cell-based; settings: [16] tested
Enterobacter aerogenes = test: as above; assay type: cell-based; settings: [10] tested
Haemophilus influenzae = test: as above; assay type: cell-based; settings: [15] tested
S. aureus SMITH (sens) = test: In vivo antibacterial evaluation, acute lethal infection in mice
Source text: In Vivo Antibacterial Evaluation (Table VII)

Serratia mercescens = test: MIC vs recent clinical and agricultural isolates (Table V, KK); assay type: cell-based; settings: [10] tested
Proteus mirabilis = test: as above; assay type: cell-based; settings: [26] tested
Neisseria gonorrhoeae = test: as above; assay type: cell-based; settings: [14] tested
[13] = tested on: S. aureus UBMS 88-7 (tetK); test: MIC, agar dilution; assay type: cell-based
[14] = tested on: Escherichia coli (Clinical); test: MIC vs recent clinical and agricultural isolates (Table V, KK); assay type: cell-based; settings: [30] tested
Streptococcus pneumoniae = test: as above; assay type: cell-based; settings: [10] tested
Anaerobic Gram (+) Cocci = test: as above; assay type: cell-based; settings: [15] tested
[15] = tested on: S. aureus Smith (Sensitive); test: MIC, agar dilution; assay type: cell-based
Klebsiella oxytoca = test: MIC vs recent clinical and agricultural isolates (Table V, KK); assay type: cell-based; settings: [10] tested
Clostridium perfringens = assay type: cell-based; settings: [16] tested
E. faecalis ATCC 29212 = test: MIC, agar dilution; assay type: cell-based; settings: E. faecalis ATCC 29212
Citrobacter freundii = test: MIC vs recent clinical and agricultural isolates (Table V, KK); assay type: cell-based; settings: [10] tested
Listeria monocytogenes = test: as above; assay type: cell-based; settings: [8] tested
[16] = tested on: Staphylococcus aureus, methicillin-susceptible; test: as above; assay type: cell-based; settings: [15] tested
Bacteroides spp. = test: as above; assay type: cell-based; settings: [9] tested
Streptococcus pyogenes = test: as above; assay type: cell-based; settings: [10] tested
[17] = tested on: Enterococcus spp. Vancomycin-resistant; test: as above; assay type: cell-based; settings: [8] tested
Xanthomonas maltophilia = test: as above; assay type: cell-based; settings: [10] tested
Morganella morganii = test: as above; assay type: cell-based; settings: [16] tested
Moraxella catarrhalis = test: as above; assay type: cell-based; settings: [18] tested
Bacteroides fragilis = test: as above; assay type: cell-based; settings: [11] tested

## CN(C)CC(=O)Nc1cc(N(C)C)c2c(c1O)C(=O)C1=C(O)[C@]3(O)C(=O)C(C(N)=O)=C(O)[C@@H](N(C)C)C3CC1C2.Cl.Cl (stereo partly drawn) [KK, [4S-(4alpha,12aalpha)]-4,7-Bis(dimethylamino)-9-[[(dimethylamino)acetyl]amino]-1,4,4a,5,5a,6,11,12a-octahydro-3,10,12,12a-tetrahydroxy-1,11-dioxo-2-naphthacenecarboxamide dihydrochloride]
[1]; S. aureus UBMS 90-3, Table IA, unit assumed
  Antibacterial activity (MIC): 0.03 µg/mL
[2]; S. aureus UBMS 88-4, Table IA, unit assumed
  Antibacterial activity (MIC): 0.12 µg/mL
[3]
  MIC (range over isolates): 0.12 µg/mL
E. coli UBMS 89-1 (tetM); E. coli UBMS 89-1 TetM, Table IA, unit assumed
  Antibacterial activity (MIC): 0.12 µg/mL
Pseudomonas aeruginosa
  MIC (range over isolates): 1 to 16 µg/mL
[4]; S. hemolyticus AVHAH 88-3, Table IA, unit assumed
  Antibacterial activity (MIC): 0.12 µg/mL
Enterococcus faecium
  MIC (range over isolates): 0.03 to 0.12 µg/mL
[5]
  MIC (range over isolates): 0.06 to 2 µg/mL
Streptococcus agalactiae
  MIC (range over isolates): 0.06 to 0.25 µg/mL
[6]
  MIC (range over isolates): 0.03 to 0.25 µg/mL
E. coli UBMS 88-1 (tetB); E. coli UBMS 88-1 TetB, Table IA, unit assumed
  Antibacterial activity (MIC): 0.25 µg/mL
[7]; S. aureus ATCC 29213, Table IA
  Antibacterial activity (MIC): ≦0.015
[8]; mice, Escherichia coli UBMS 90-4 (Tet-M), Intraveneous
  ED50: 2.49 mg/kg
E. faecalis 12201; Enterococcus 12201, Table IA, unit assumed
  Antibacterial activity (MIC): 0.12 µg/mL
E. coli ATCC 25922; E. coli ATCC 25922, Table IA, unit assumed
  Antibacterial activity (MIC): 0.25 µg/mL
[9]; S. aureus UBMS 88-5 TetM, Table IA, unit assumed
  Antibacterial activity (MIC): 0.25 µg/mL
[10]; E. coli UBMS 89-2 Tet Sens., Table IA, unit assumed
  Antibacterial activity (MIC): 0.25 µg/mL
[11]; S. aureus UBMS 90-1 TetM, Table IA, unit assumed
  Antibacterial activity (MIC): 0.25 µg/mL
E. coli UBMS 90-4 (tetM); E. coli UBMS 90-4 TetM, Table IA, unit assumed
  Antibacterial activity (MIC): 0.25 µg/mL
[12]
  MIC (range over isolates): 0.12 to 8 µg/mL
Enterobacter aerogenes
  MIC (range over isolates): 0.5 to 1 µg/mL
Haemophilus influenzae
  MIC (range over isolates): 0.5 to 2 µg/mL
S. aureus SMITH (sens); Oral
  ED50: 8 to 16 mg/kg
Serratia mercescens
  MIC (range over isolates): 2 to 8 µg/mL
Proteus mirabilis
  MIC (range over isolates): 1 to 32 µg/mL
Neisseria gonorrhoeae
  MIC (range over isolates): 0.25 to 1 µg/mL
[13]; S. aureus UBMS 88-7 TetK, Table IA, unit assumed
  Antibacterial activity (MIC): 0.25 µg/mL
[14]
  MIC (range over isolates): 0.12 to 4 µg/mL
Streptococcus pneumoniae
  MIC (range over isolates): 0.03 to 0.25 µg/mL
Anaerobic Gram (+) Cocci
  MIC (range over isolates): 0.015 to 0.06 µg/mL
[15]; S. aureus SMITH (MP), Table IA, unit assumed
  Antibacterial activity (MIC): 0.06 µg/mL
Klebsiella oxytoca
  MIC (range over isolates): 0.5 to 1 µg/mL
Clostridium perfringens
  MIC (range over isolates): 0.03 to 1 µg/mL
E. faecalis ATCC 29212; Table IA, unit assumed
  Antibacterial activity (MIC): 0.06 µg/mL
Citrobacter freundii
  MIC (range over isolates): 0.25 to 8 µg/mL
Listeria monocytogenes
  MIC (range over isolates): 0.06 to 0.12 µg/mL
[16]
  MIC (range over isolates): 0.12 to 0.25 µg/mL
Bacteroides spp.
  MIC (range over isolates): 0.03 to 1 µg/mL
Streptococcus pyogenes
  MIC (range over isolates): 0.06 to 0.12 µg/mL
[17]
  MIC (range over isolates): 0.015 to 0.06 µg/mL
Xanthomonas maltophilia
  MIC (range over isolates): 0.5 to 2 µg/mL
Morganella morganii
  MIC (range over isolates): 0.5 to 4 µg/mL
Moraxella catarrhalis
  MIC (range over isolates): 0.06 to 0.12 µg/mL
Bacteroides fragilis
  MIC (range over isolates): 0.06 to 0.2 µg/mL

## CN(C)c1ccc(O)c2c1C[C@H]1C[C@H]3[C@H](N(C)C)C(O)=C(C(N)=O)C(=O)[C@@]3(O)C(O)=C1C2=O [Compound O, 7-(Dimethylamino)-6-demethyl-6-deoxytetracycline hydrochloride (minocycline hydrochloride), reference compound]
[1]; Staphylococcus aureus, S. aureus UBMS 90-3 (Sensitive), read-out: MIC
  MIC: ≤ 0.015 µg/mL
[2]; Staphylococcus aureus, S. aureus UBMS 88-4 (Sensitive), read-out: MIC
  MIC: ≤ 0.015 µg/mL
[3]
  MIC (range over isolates): 0.06 to 0.12 µg/mL
E. coli UBMS 89-1 (tetM); Escherichia coli
  MIC: 16 µg/mL
Pseudomonas aeruginosa
  MIC (range over isolates): 1 to 16 µg/mL
[4]; S. haemolyticus AVAH 88-3, hydrochloride
  MIC: 0.06 µg/mL
[4]; Staphylococcus haemolyticus, AVAH883, S. haemolyticus AVAH 88-3, read-out: MIC
  MIC: 0.03 µg/mL
Enterococcus faecium
  MIC (range over isolates): 0.03 to 16 µg/mL
[5]
  MIC (range over isolates): <0.008 to 4 µg/mL
Streptococcus agalactiae
  MIC (range over isolates): 0.12 to 16 µg/mL
[6]
  MIC (range over isolates): 0.015 to 4 µg/mL
E. coli UBMS 88-1 (tetB); hydrochloride
  MIC: 16 µg/mL
E. coli UBMS 88-1 (tetB); Escherichia coli
  MIC: 8 µg/mL
[7]; Staphylococcus aureus, ATCC29213, S. aureus ATCC 29213 (Sensitive), read-out: MIC
  MIC: ≤ 0.015 µg/mL
[8]; Escherichia coli, in Mus musculus, iv
  ED50: > 32 mg/kg
E. faecalis 12201; E. faecalis 12201, hydrochloride
  MIC: 8 µg/mL
E. faecalis 12201; Enterococcus faecalis, 12201, E. faecalis 12201, read-out: MIC
  MIC: 4 µg/mL
E. coli ATCC 25922; E. coli ATCC 25922, hydrochloride
  MIC: 0.5 µg/mL
E. coli ATCC 25922; Escherichia coli, ATCC25922, E. coli ATCC 25922, read-out: MIC
  MIC: 0.25 µg/mL
[9]; hydrochloride
  MIC: 4 µg/mL
[9]; Staphylococcus aureus
  MIC: 2 µg/mL
[10]; Escherichia coli, E. coli UBMS 89-2 (Sensitive), read-out: MIC
  MIC: 0.5 µg/mL
[11]; hydrochloride
  MIC: 2 µg/mL
[11]; Staphylococcus aureus
  MIC: 4 µg/mL
E. coli UBMS 90-4 (tetM); Escherichia coli
  MIC: 64 µg/mL
[12]
  MIC (range over isolates): 0.03 to 1 µg/mL
Enterobacter aerogenes
  MIC (range over isolates): 0.5 to 1 µg/mL
Haemophilus influenzae
  MIC (range over isolates): 0.5 to 2 µg/mL
S. aureus SMITH (sens); Staphylococcus aureus, Oral, read-out: ED50
  ED50: 0.74 mg/kg
S. aureus SMITH (sens); Staphylococcus aureus, iv, Intraveneous, read-out: ED50
  ED50: 0.37 mg/kg
Serratia mercescens
  MIC (range over isolates): 1 to 8 µg/mL
Proteus mirabilis
  MIC (range over isolates): 1 to 32 µg/mL
Neisseria gonorrhoeae
  MIC (range over isolates): 0.5 to 64 µg/mL
[13]; Staphylococcus aureus
  MIC: 0.06 µg/mL
[14]
  MIC (range over isolates): 0.25 to 32 µg/mL
Streptococcus pneumoniae
  MIC (range over isolates): 0.06 to 0.5 µg/mL
Anaerobic Gram (+) Cocci
  MIC (range over isolates): 0.05 to 8 µg/mL
[15]; Staphylococcus aureus, S. aureus Smith (Sensitive), read-out: MIC
  MIC: ≤ 0.015 µg/mL
Klebsiella oxytoca
  MIC (range over isolates): 0.5 to 4 µg/mL
Clostridium perfringens
  MIC (range over isolates): >0.008 to 16 µg/mL
E. faecalis ATCC 29212; Enterococcus faecalis, ATCC29212, read-out: MIC
  MIC: 0.5 µg/mL
Citrobacter freundii
  MIC (range over isolates): 0.03 to 32 µg/mL
Listeria monocytogenes
  MIC (range over isolates): 0.015 to 0.03 µg/mL
[16]
  MIC (range over isolates): 0.03 to 0.12 µg/mL
Bacteroides spp.
  MIC (range over isolates): 0.03 to 16 µg/mL
Streptococcus pyogenes
  MIC (range over isolates): 0.03 to 2 µg/mL
[17]
  MIC (range over isolates): 0.03 to 16 µg/mL
Xanthomonas maltophilia
  MIC (range over isolates): 0.12 to 1 µg/mL
Morganella morganii
  MIC (range over isolates): 0.25 to 32 µg/mL
Moraxella catarrhalis
  MIC (range over isolates): 0.03 to 0.12 µg/mL
Bacteroides fragilis
  MIC (range over isolates): <0.008 to 16 µg/mL
